According to US20080085888A1, “Therapeutic Combinations” (priority 2006, published 2008):

Experiments:
rodent = conditions: cited from earlier work; for effect on haloperidol-induced catalepsy: Levin and Lippiello 1999
male Long Evans rats = assay: Blockade of D-amphetamine-induced locomotor activity (LMA); format: in vivo, rat; conditions: for attenuation of amphetamine-induced locomotor activity: D-amphetamine 1 mg/kg s.c.
CF-1 male mice = assay: Haloperidol-induced catalepsy model of EPS; format: in vivo, mouse
Source text: III. Blockade of Haloperidol-Induced Catalepsy
Haloperidol-induced catalepsy model of EPS: Haloperidol is a typical or first-generation antipsychotic drug that while effective is prone to produce extrapyramidal symptoms (EPS) in humans. Other antipsychotic drugs (e.g. chlorpromazine, risperidone) can also cause EPS in patients and this side effect can limit the use of these drugs. In rodents, drug-induced catalepsy (a trance-like state of waxy immobility) can be used to assess the risk of EPS for antipsychotic drugs. Haloperidol reliably induces catalepsy in mice and rats. Test compounds that reduce catalepsy in haloperidol-treated rats may reduce antipsychotic drug-induced EPS.
Haloperidol-induced catalepsy in mice model: CF-1 male mice (Charles River, 20-30 gm, 10 mice per dose) were dosed orally with compound (b) at 0.06, 0.19, 0.6 and 1.9 mg/kg or vehicle (distilled water). Thirty minutes later, all mice were dosed with 2 mg/kg of haloperidol s.c. At 60 minutes and 4 hours after haloperidol dosing, the experimenter gently placed both forepaws of each animal on a metal bar (4 mm in diameter) that was fixed horizontally 5 cm above the test floor. The length of time (in seconds) during which each mouse maintained the initial forepaw bar position was recorded (cataleptic pose). Maximum cut-off time was 60 seconds. The same experimental design was performed on two consecutive days, and results were combined from both experiments. Therefore, the final results are from groups of 20 mice.

male, Long Evans rats = assay: Spontaneous locomotor activity (sLMA), quetiapine-induced sedation
Source text: I. Attenuation of Quetiapine-Induced Sedation Using Spontaneous Locomotor Activity (sLMA)
Quetiapine is known to have sedative properties in humans. Quetiapine can induce sedation in rats and is manifested in various behaviors including reductions in spontaneous locomotor activity (sLMA). A test compound that increases sLMA in quetiapine treated rats may reduce quetiapine-induced sedation in human subjects.
The general procedure was to assess the effect of a particular drug on sLMA in rats by administering the drug after baseline assessment and then waiting an appropriate amount of time for the drug to achieve significant levels in plasma and brain.
Quetiapine was solubilized in saline plus some drops of 85% lactic acid and sonicated for around 20-30 minutes then adjusted with NaOH 1N for pH ˜4.8 to 5.0. The solution was stirred during the experiment to ensure uniform composition prior to administration. Quetiapine was administered by s.c. injection 15 minutes before testing. The dose volume was 4 ml/kg.
Compound b was dissolved in H2O and administered by oral gavage (p.o.) 30 minutes before testing with a dose volume of 1 ml/kg.
The effect of Compound b alone on sLMA was tested by administering doses of 0.006, 0.019, 0.06 or 0.19 mg/kg by oral gavage (p.o.) 30 minutes before testing. […]
Exploratory activity was monitored and quantified using open field activity systems (hardware and software) purchased from Med Associates. […]
Statistical analysis was made of total distance traveled over the 5 minutes test period for a spontaneous locomotor activity using one-way analysis ANOVA and Turkey's multiple-range analysis. All values are expressed as mean and SD.

Structure (SMILES): CN1CCCC1c1cccnc1 (centres unmarked) [nicotine]
- effect on haloperidol-induced catalepsy (rodent): did not significantly worsen haloperidol-induced catalepsy, they did not reduce it either
- effect on catalepsy in rodent (rodent; Sanberg et al. 1993): can worsen catalepsy

Structure (SMILES): C[C@H](N)Cc1ccccc1 [Amphetamine, D-amphetamine]
- locomotor activity in habituated rats (male Long Evans rats; D-amphetamine 1 mg/kg s.c. alone, p<0.001): significantly increased

Structure (SMILES): OCCOCCN1CCN(C2=Nc3ccccc3Sc3ccccc32)CC1 [quetiapine, 11-[4-[2-(2-hydroxyethoxy)ethyl]-1-piperazinyl]dibenzo[b,f][1,4]thiazepine]
- attenuation of amphetamine-induced locomotor activity (male Long Evans rats; quetiapine alone 10 mg/kg s.c.): did not significantly attenuate
- attenuation of amphetamine-induced locomotor activity (male Long Evans rats; quetiapine alone 10 mg/kg s.c., listed as Quetiapine): not
- attenuation of amphetamine-induced locomotor activity (male Long Evans rats; quetiapine alone 20, 40 and 60 mg/kg s.c.): significantly attenuated
- threshold for significantly reducing D-amphetamine-induced locomotor activity (male Long Evans rats; quetiapine alone s.c.): 20 mg/kg

Structure (SMILES): CN[C@@H](C)C/C=C/c1cncc(OC(C)C)c1.O=C(O)c1ccc(O)cc1 [Compound b, (2S)-(4E)-N-Methyl-5-[3-(5-isopropoxypyridin)yl]-4-penten-2-amine p-hydroxybenzoate]
- reduction of haloperidol induced catalepsy (CF-1 male mice; 60 minute time point, Compound b 0.06, 0.19, 0.6 and 1.9 mg/kg p.o. 30 min before haloperidol 2 mg/kg s.c., P<0.05): reduced haloperidol induced catalepsy
- reduction of haloperidol induced catalepsy (CF-1 male mice; 4 hour time point, 1.9 mg/kg p.o. (only this dose) before haloperidol 2 mg/kg s.c.): significant reduction
- reduction of D-amphetamine-induced locomotor activity (male Long Evans rats; Compound b alone 0.19 mg/kg p.o.): did not significantly reduce
- reduction of D-amphetamine-induced locomotor activity (male Long Evans rats; combination: Compound b 0.19 mg/kg p.o. with quetiapine 10 mg/kg s.c., vs D-amphetamine alone group): did significantly reduce
- reduction of D-amphetamine-induced locomotor activity (male Long Evans rats; combination: Compound b 0.019 or 0.06 mg/kg p.o. with quetiapine 10 mg/kg s.c.): did not significantly reduce
- reduction in sLMA compared to vehicle-vehicle controls (male, Long Evans rats; Compound b 0.19 mg/kg p.o. administered before quetiapine 40 mg/kg s.c. (combination)): did not result in a significant reduction in sLMA
- suppression of sLMA (male, Long Evans rats; Compound b 0.19 mg/kg p.o. and then vehicle): no significant suppression of sLMA
- effect on sLMA (total distance traveled) (male, Long Evans rats; Compound b alone, 0.006, 0.019, 0.06 and 0.19 mg/kg p.o., 30 min before testing, 5 min test): no significant effect

Structure (SMILES): O=C(CCCN1CCC(O)(c2ccc(Cl)cc2)CC1)c1ccc(F)cc1 [Haloperidol, haloperidol]
- mice with catalepsy of up to 60 seconds (CF-1 male mice; haloperidol 2 mg/kg s.c. alone): 60-90 % of mice

Structure (SMILES): CNCC/C=C/c1cccnc1 [RJR 2403]
- effect on haloperidol-induced catalepsy (rodent): did not significantly worsen haloperidol-induced catalepsy, they did not reduce it either
